Results published in ChEMBL document CHEMBL1148579, “Influence of various central moieties on the hypolipidemic properties of long hydrocarbon chain diols and diacids” (J Med Chem, 2006).

Key:
Rattus norvegicus [1] = assay: Activity against high density lipoprotein cholesterol level in obese female Zucker rat serum after 2 weeks at 80 mg/kg (percent change from pre-treatment); assay type: functional
Rattus norvegicus [2] = assay: Activity against triglyceride level in obese female Zucker rat serum after 1 week at 80 mg/kg (percent change from pre-treatment); assay type: functional
Rattus norvegicus [3] = assay: Activity against triglyceride level in obese female Zucker rat serum after 2 weeks at 80 mg/kg (percent change from pre-treatment); assay type: functional
Hepatocyte = assay: Inhibition of lipid synthesis in primary rat hepatocytes by incorporation radiolabeled acetate into cellular lipids; assay type: functional, cell-based, Sprague-Dawley
Rattus norvegicus [4] = assay: Activity against non high density lipoprotein cholesterol level in obese female Zucker rat serum after 1 week at 80 mg/kg (percent change from pre-treatment); assay type: functional
Rattus norvegicus [5] = assay: Activity against non high density lipoprotein cholesterol level in obese female Zucker rat serum after 2 weeks at 80 mg/kg (percent change from pre-treatment); assay type: functional
Rattus norvegicus [6] = assay: Activity against high density lipoprotein cholesterol level in obese female Zucker rat serum after 1 week at 80 mg/kg (percent change from pre-treatment); assay type: functional
Rattus norvegicus [7] = assay: Activity against high density lipoprotein cholesterol level in obese female Zucker rat serum after 1 week at 100 mg/kg (percent change from pre-treatment); assay type: functional
Rattus norvegicus [8] = assay: Activity against non high density lipoprotein cholesterol level in obese female Zucker rat serum after 1 week at 100 mg/kg (percent change from pre-treatment); assay type: functional
Rattus norvegicus [9] = assay: Activity against non high density lipoprotein cholesterol level in obese female Zucker rat serum after 2 weeks at 100 mg/kg (percent change from pre-treatment); assay type: functional
Rattus norvegicus [10] = assay: Activity against high density lipoprotein cholesterol level in obese female Zucker rat serum after 2 weeks at 100 mg/kg (percent change from pre-treatment); assay type: functional
Rattus norvegicus [11] = assay: Activity against triglyceride level in obese female Zucker rat serum after 1 week at 100 mg/kg (percent change from pre-treatment); assay type: functional
Rattus norvegicus [12] = assay: Activity against triglyceride level in obese female Zucker rat serum after 2 weeks at 100 mg/kg (percent change from pre-treatment); assay type: functional
Rattus norvegicus [13] = assay: Activity against non high density lipoprotein cholesterol level in obese female Zucker rat serum after 1 week at 30 mg/kg (percent change from pre-treatment); assay type: functional
Rattus norvegicus [14] = assay: Activity against non high density lipoprotein cholesterol level in obese female Zucker rat serum after 2 weeks at 30 mg/kg (percent change from pre-treatment); assay type: functional
Rattus norvegicus [15] = assay: Activity against high density lipoprotein cholesterol level in obese female Zucker rat serum after 1 week at 30 mg/kg (percent change from pre-treatment); assay type: functional
Rattus norvegicus [16] = assay: Activity against high density lipoprotein cholesterol level in obese female Zucker rat serum after 2 weeks at 30 mg/kg (percent change from pre-treatment); assay type: functional
Rattus norvegicus [17] = assay: Activity against triglyceride level in obese female Zucker rat serum after 1 week at 30 mg/kg (percent change from pre-treatment); assay type: functional
Rattus norvegicus [18] = assay: Activity against triglyceride level in obese female Zucker rat serum after 2 weeks at 30 mg/kg (percent change from pre-treatment); assay type: functional
[19] = Rattus norvegicus, Sprague-Dawley, Hepatocyte, read-out: IC50

SMILES	IC50 (Hepatocyte; hepatocyte)	Activity (Rattus norvegicus [7])	IC50 (Hepatocyte; [19])	Activity (Rattus norvegicus [8])	Activity (Rattus norvegicus [9])	Activity (Rattus norvegicus [10])	Activity (Rattus norvegicus [11])	Activity (Rattus norvegicus [12])	further results
CC(CO)(CCC[S+]([O-])CCCC(C)(CO)c1ccccc1)c1ccccc1 (stereo not given)	Not Active	–	–	–	–	–	–	–	Activity (Rattus norvegicus [1]): -36%; Activity (Rattus norvegicus [2]): 18%; Activity (Rattus norvegicus [3]): 41%; Activity (Rattus norvegicus [4]): 68%; Activity (Rattus norvegicus [5]): 81%; Activity (Rattus norvegicus [6]): -23%
CC(C)(CO)CCCCC(CO)CCCCC(C)(C)CO	–	2%	15 µM	-43%	-12%	-2%	-52%	-23%	–
CC(C)(CCCCCC(=O)CCCCCC(C)(C)C(=O)O)C(=O)O	–	72%	–	-98%	-99%	168%	-93%	-94%	–
CC(C)(CO)CCCCN(O)CCCCC(C)(C)CO	–	–	63 µM	–	–	–	–	–	Activity (Rattus norvegicus [13]): -40%; Activity (Rattus norvegicus [14]): -5%; Activity (Rattus norvegicus [15]): 27%; Activity (Rattus norvegicus [16]): 19%; Activity (Rattus norvegicus [17]): -26%; Activity (Rattus norvegicus [18]): 13%
CC(C)(CO)CCC[S+]([O-])CCCC(C)(C)CO	Not Active	54%	–	40%	12%	93%	-36%	-5%	–
CC(CO)(CCCSCCCC(C)(CO)c1ccccc1)c1ccccc1 (stereo not given)	–	9%	41 µM	-26%	8%	2%	-18%	1%	–
CC(C)(CO)CCCSCCCC(C)(C)CO	–	–	15 µM	–	–	–	–	–	Activity (Rattus norvegicus [13]): -40%; Activity (Rattus norvegicus [14]): -14%; Activity (Rattus norvegicus [15]): 54%; Activity (Rattus norvegicus [16]): 40%; Activity (Rattus norvegicus [17]): -51%; Activity (Rattus norvegicus [18]): -34%
CC(CCCCSCCCCC(C)(C(=O)O)c1ccccc1)(C(=O)O)c1ccccc1 (stereo not given)	–	–	26 µM	–	–	–	–	–	–
CC(C)(CO)CCCC[S+]([O-])CCCCC(C)(C)CO	Not Active	127%	–	56%	64%	233%	-37%	-35%	–
CC(C)(CO)CCCCS(=O)(=O)CCCCC(C)(C)CO	–	15%	8.9 µM	-46%	-34%	-13%	-34%	-19%	–
CC(C)(CO)CCCCOP(=O)(O)OCCCCC(C)(C)CO	Not Active	–	–	–	–	–	–	–	Activity (Rattus norvegicus [1]): 8%; Activity (Rattus norvegicus [2]): -10%; Activity (Rattus norvegicus [3]): -13%; Activity (Rattus norvegicus [4]): -29%; Activity (Rattus norvegicus [5]): -17%; Activity (Rattus norvegicus [6]): 27%
